We go through 1 compound from patent publication US10130630B2, “BTK inhibitors” (MERCK SHARP & DOHME CORP., priority 2014, dated 2018).

Assay [1] deals with T1, BTK enzyme (full-length BTK, hBTK) (Homo sapiens, UniProt Q06187).
T1 construct: recombinant protein from baculovirus-transfected Sf9 cells: full-length BTK, 6HIS-tag cleaved; 6HIS (cleaved yes); made in house; host or cells: baculovirus-transfected Sf9 cells
Kind of assay: Btk enzyme activity assay (LANCE TR-FRET). It counts as biochemical. To be noted: 50 pM hBTK, 25 μM ATP, 60 minute compound and enzyme incubation, read-out: BTK binding IC50. The procedure, abridged:
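Full-length human BTK from Sf9 cells (His-tag cleaved; 50 pM final) was preincubated 60 min with compound in pH 7.5 HEPES/MgCl2 buffer. Reaction then ran 120 min with 2 μM biotin-A5 peptide and 25 μM ATP, read by TR-FRET (Eu anti-pTyr/streptavidin-Dylight 650, 665/615 nm ratio). IC50 came from a 4-parameter fit.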
(In general: TR-FRET usually uses a lanthanide donor and a delayed reading to cut background.)

Assay [2] has as its system adenosine uptake into HeLa cells. Kind of assay: [3H]Adenosine uptake assay in HeLa cells. It counts as cell-based. As to conditions: 60 minutes uptake, read-out: ADU inhibition IC50 (adenosine uptake inhibition potency).

T1 sequence (Q06187 whole entry): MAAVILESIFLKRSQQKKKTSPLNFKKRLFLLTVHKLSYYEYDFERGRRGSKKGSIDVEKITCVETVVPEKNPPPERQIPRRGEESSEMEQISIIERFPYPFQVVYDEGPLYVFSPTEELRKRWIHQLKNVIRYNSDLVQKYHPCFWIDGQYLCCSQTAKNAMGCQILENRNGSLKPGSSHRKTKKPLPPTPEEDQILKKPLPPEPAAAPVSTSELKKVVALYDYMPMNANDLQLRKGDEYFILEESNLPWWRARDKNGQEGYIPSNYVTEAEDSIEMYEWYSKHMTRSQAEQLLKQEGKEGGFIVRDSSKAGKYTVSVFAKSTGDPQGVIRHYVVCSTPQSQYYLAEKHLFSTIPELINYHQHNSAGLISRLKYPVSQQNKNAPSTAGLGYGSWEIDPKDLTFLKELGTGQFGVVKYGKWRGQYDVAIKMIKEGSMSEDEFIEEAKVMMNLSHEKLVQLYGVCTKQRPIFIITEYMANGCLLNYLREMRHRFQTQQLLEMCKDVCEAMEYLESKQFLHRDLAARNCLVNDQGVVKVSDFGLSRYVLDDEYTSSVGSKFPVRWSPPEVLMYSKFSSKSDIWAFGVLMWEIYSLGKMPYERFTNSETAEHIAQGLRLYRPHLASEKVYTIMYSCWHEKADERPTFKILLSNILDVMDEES

On to `CCOc1cc(C(=O)Nc2cc(C(F)(F)F)ccn2)ccc1-c1nc(C2CCC3N(C2)C(=O)CNC32CC2)n2ccnc(N)c12` (centres unmarked) [Compound 42, 4-[8-amino-3-(4′-oxohexahydro-2′H,6′H-spiro[cyclopropane-1,1′-pyrido[1,2-a]pyrazin]-7′-yl)imidazo[1,5-a]pyrazin-1-yl]-3-ethoxy-N-[4-(trifluoromethyl)pyridin-2-yl]benzamide], for which the IC50 – broadly, the concentration needed to halve the response being measured – in assay [1] was 0.000231 µM; in assay [2], 2.22 µM.
